Results reported in patent US20240018121A1, “NOVEL HETEROAROMATIC COMPOUNDS EXHIBITING ANTIFUNGAL ACTIVITY AND THEIR METHOD OF USE” (FOX CHASE CHEMCIAL DIVERSITY CENTER, INC., priority 2020, published 2024).
Values after ≈ are worked out from the molar mass of the structure shown. Structures can show the parent of a compound that is named as a salt. Where two headings read alike, the source gives them in different places.

Experiments:
Type in all cases: cell-based
[1] = tested on: Fusarium solani (ATCC 58877); experiment: Fungal MIC Protocol, Fusarium solani; conditions: Fusarium solani, read-out: MIC Fusarium solani 58877
Outline: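 Broth microdilution MIC test against Fusarium solani in RPMI/MOPS medium at pH 7.0. Compounds from DMSO stock were diluted to 200 ug/mL, then serially diluted ten times and plated in duplicate at 50 μl per well. 50 ul of spore suspension at OD530 0.005 was added. Controls had compound without cells and spores without compound. Plates were mixed gently, bagged, and incubated at 35° C. for 48 hours.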

[2] = tested on: Candida albicans GDH2346; experiment: Candida Minimal Inhibitory Concentration (MIC); conditions: Candida albicans, read-out: MIC-50 Candida albicans GDH2346
Outline: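 Twofold serial dilutions from 200 μg/mL in RPMI 1640/MOPS with glucose, pH 7.0, tested in duplicate against yeast from an OD600 1.0 suspension diluted 1:1000. Incubated at 35° C; OD600 read at 24 and 48 h.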

[3] = tested on: Fusarium falciforme FS1 (ATCC MYA-3636); experiment: Fungal MIC Protocol, Fusarium falciforme; conditions: Fusarium falciforme, read-out: MIC Fusarium falciforme 3636
Outline: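 MIC against Fusarium falciforme was determined by broth microdilution in RPMI/MOPS medium containing glucose. Compounds started at 200 ug/mL and were serially diluted ten times, then combined with harvested spores adjusted to an OD530 of 0.005. Controls held compound without cells and spores without compound. Plates were bagged and incubated at 35° C. for 48 hours.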

[4] = tested on: Aspergillus flavus AFL1 (ATCC MYA-3631); experiment: Fungal MIC Protocol, Aspergillus flavus; conditions: Aspergillus flavus, read-out: MIC Aspergillus flavus 3631
Outline: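 The MIC against Aspergillus flavus was measured by broth microdilution in RPMI/MOPS medium at pH 7.0. Compounds were diluted to 200 ug/mL from DMSO stocks, then ten serial dilutions were tested in duplicate in round bottom 96-well plates. Spores adjusted to a final OD530 of 0.002 were added, with no-cell and no-compound control wells, and plates were incubated 48 hours at 35° C.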

[5] = tested on: Mucor circinelloides 1463(62) (ATCC 26759); experiment: Fungal MIC Protocol, Mucor circinelloides (MIC-50); conditions: Mucor circinelloides, read-out: MIC-50 Mucorales circinelloides 26579
Outline: (§1)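 Harvested spores, adjusted by OD530 to about 2×10^4 cfu/mL in RPMI/MOPS pH 7.0, are mixed with ten duplicate serial dilutions of compound. Incubation runs 48 h at 35° C before visual scoring of the lowest concentration inhibiting growth >50%.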

[6] = tested on: Aspergillus fumigatus T33439 (ATCC MYA-3626); experiment: Fungal MIC Protocol, Aspergillus fumigatus; conditions: Aspergillus fumigatus, read-out: MIC Aspergillus fumigatus 3626
Outline: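 This broth microdilution MIC test used RPMI/MOPS medium at pH 7.0 with glucose. Compounds were diluted from DMSO stock to 200 ug/mL and serially diluted ten times in 96-well round bottom plates. Equal volumes of compound and Aspergillus spore suspension at OD530 0.002 were combined, with controls of compound without cells and spores without compound. Plates were bagged and incubated at 35° C. for 48 hours.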

[7] = tested on: Mucor ramosissimus 057718 (ATCC 90286); experiment: Fungal MIC Protocol, Mucor ramosissimus (MIC-50); conditions: Mucor ramosissimus, read-out: MIC-50 Mucorales ramosissimus 90286
Outline: as §1

[8] = ATCC58877, 100% growth inhibition at 48 hours
[9] = GDH2346, 50% growth inhibition at 48 hours
[10] = 100% growth inhibition at 48 hours
[11] = ATCC26759, 50% growth inhibition at 48 hours
[12] = ATCC90286, 50% growth inhibition at 48 hours

Row | MIC [1, 8] [µg/mL] | MIC50 [2, 9] [µg/mL] | MIC [3, 10] [µg/mL] | MIC [4, 10] [µg/mL] | MIC50 [5, 11] [µg/mL] | MIC [6, 10] [µg/mL] | MIC50 [7, 12] [µg/mL] | Compound | MIC ([1]; ATCC58877, 48 h) [µg/mL] | MIC50 ([2]; GDH2346, 48 h) [µg/mL] | MIC ([3]; 48 h) [µg/mL] | MIC ([4]; 48 h) [µg/mL] | MIC50 ([5]; ATCC26759, 48 h) [µg/mL] | MIC ([6]; 48 h) [µg/mL] | MIC50 ([7]; ATCC90286, 48 h) [µg/mL]
1 | < 0.1 | < 0.024 | < 0.1 | < 0.1 | > 100 | 0.2 (≈ 0.404 µM) | > 100 | CCn1c(-c2ccc(C3=CCN(C(=N)N)CC3)cc2)nnc1-c1ccc(C2=CCN(C(=N)N)CC2)cc1 [Example 2, 4,4′-(4,4′-(4-Ethyl-4H-1,2,4-triazole-3,5-diyl)bis(4,1-phenylene)) bis(5,6-dihydropyridine-1(2H)-carboximidamide)] |  |  |  |  |  |  | 
2 | 1.56 (≈ 3.24 µM) | 0.39 (≈ 0.81 µM) | < 0.1 | 0.39 (≈ 0.81 µM) | 0.39 (≈ 0.81 µM) | 1.56 (≈ 3.24 µM) | 25 (≈ 51.9 µM) | Cc1cc(-n2cc(-c3ccc(C4=CCN(C(=N)N)CC4)cc3)nn2)ccc1C1=CCN(C(=N)N)CC1 [Example 35, 4-(4-(1-(4-(1-Carbamimidoyl-1,2,3,6-tetrahydropyridin-4-yl)-3-methylphenyl)-1H-1,2,3-triazol-4-yl)phenyl)-5,6-dihydropyridine-1(2H)-carboximidamide] |  |  |  |  |  |  | 
3 | 0.78 (≈ 1.61 µM) | 0.78 (≈ 1.61 µM) | 0.78 (≈ 1.61 µM) | 1.56 (≈ 3.21 µM) | > 100 | 1.56 (≈ 3.21 µM) | > 100 | Cn1c(-c2ccc(C3CCN(C(=N)N)CC3)cc2)nnc1-c1ccc(C2CCN(C(=N)N)CC2)cc1 [Example 39, 4,4′-(4,4′-(4-Methyl-4H-1,2,4-triazole-3,5-diyl)bis(4,1-phenylene))dipiperidine-1-carboximidamide] |  |  |  |  |  |  | 
4 |  |  |  |  |  |  |  | COCCn1c(-c2ccc(C3=CCN(C(=N)N)CC3)cc2F)nnc1-c1ccc(C2=CCN(C(=N)N)CC2)cc1F [Example 68, 4-(4-{5-[4-(1-carbamimidoyl-1,2,3,6-tetrahydropyridin-4-yl)-2-fluorophenyl]-4-(2-methoxyethyl)-4H-1,2,4-triazol-3-yl}-3-fluorophenyl)-1,2,3,6-tetrahydropyridine-1-carboximidamide trifluoroacetate] | < 0.1 | 0.2 | < 0.1 | < 0.1 | 0.39 | 0.1 | 0.78
5 | 0.78 (≈ 1.57 µM) | 0.08 (≈ 0.161 µM) | < 0.1 | 0.39 (≈ 0.787 µM) | 0.78 (≈ 1.57 µM) | 0.78 (≈ 1.57 µM) | 6.25 (≈ 12.6 µM) | Cc1cc(C2=CCN(C(=N)N)CC2)ccc1-n1nnc(-c2ccc(C3=CCN(C(=N)N)CC3)cc2)c1C [Example 32, 4-(4-(1-(4-(1-Carbamimidoyl-1,2,3,6-tetrahydropyridin-4-yl)-2-methylphenyl)-5-methyl-1H-1,2,3-triazol-4-yl)phenyl)-5,6-dihydropyridine-1(2H)-carboximidamide] |  |  |  |  |  |  | 
6 | 0.39 (≈ 0.677 µM) | 3.13 (≈ 5.44 µM) | < 0.1 | 0.78 (≈ 1.35 µM) | 0.78 (≈ 1.35 µM) | < 0.1 | 1.56 (≈ 2.71 µM) | N=C(N)N1CC=C(c2ccc(-c3nnc(-c4ccc(C5=CCN(C(=N)N)CC5)cc4F)n3Cc3ccccc3)cc2)CC1 [Example 7, 4-(4-(4-Benzyl-5-(4-(1-carbamimidoyl-1,2,3,6-tetrahydropyridin-4-yl)-2-fluorophenyl)-4H-1,2,4-triazol-3-yl)phenyl)-5,6-dihydropyridine-1(2H)-carboximidamide] |  |  |  |  |  |  | 
7 | < 0.05 | 0.1 (≈ 0.208 µM) | < 0.05 | < 0.05 | 0.78 (≈ 1.62 µM) | < 0.05 | 1.56 (≈ 3.24 µM) | Cc1c(-c2ccc(C3=CCN(C(=N)N)CC3)cc2)nnn1-c1ccc(C2=CCN(C(=N)N)CC2)cc1 [Example 31, 4-(4-{1-[4-(1-Carbamimidoyl-1,2,3,6-tetrahydropyridin-4-yl)phenyl]-5-methyl-1H-1,2,3-triazol-4-yl}phenyl)-1,2,3,6-tetrahydropyridine-1-carboximidamide] |  |  |  |  |  |  | 
8 | 1.56 (≈ 3.21 µM) | 0.78 (≈ 1.6 µM) | < 0.1 | 0.39 (≈ 0.802 µM) | 50 (≈ 103 µM) | 0.78 (≈ 1.6 µM) | 25 (≈ 51.4 µM) | N=C(N)N1CC=C(c2ccc(-c3nnc(-c4ccc(C5=CCN(C(=N)N)CC5)cc4F)o3)cc2)CC1 [Example 50, 4-(4-(5-(4-(1-Carbamimidoyl-1,2,3,6-tetrahydropyridin-4-yl)-2-fluorophenyl)-1,3,4-oxadiazol-2-yl)phenyl)-5,6-dihydropyridine-1(2H)-carboximidamide] |  |  |  |  |  |  | 
